Reference: ChEMBL document CHEMBL1201862, “PubChem BioAssay data set” (2004)
“And” between values parts separate entries of the source, which are not always exact repeats. Equal values may be shown once. The source made the active and inactive calls.

Experiments:
Assay type in all cases: functional
Protein RecA = target: T1, Protein RecA (Mycobacterium tuberculosis, UniProt P9WHJ3); assay: Fluorescence Cell-Free Homogeneous Dose Retest to Identify Inhibitors of RecA-Intein Splicing Activity. [Related pubchem assays (depositor defined):AID2097, AID2223, AID489010, AID492950]
T1 sequence (P9WHJ3 whole entry): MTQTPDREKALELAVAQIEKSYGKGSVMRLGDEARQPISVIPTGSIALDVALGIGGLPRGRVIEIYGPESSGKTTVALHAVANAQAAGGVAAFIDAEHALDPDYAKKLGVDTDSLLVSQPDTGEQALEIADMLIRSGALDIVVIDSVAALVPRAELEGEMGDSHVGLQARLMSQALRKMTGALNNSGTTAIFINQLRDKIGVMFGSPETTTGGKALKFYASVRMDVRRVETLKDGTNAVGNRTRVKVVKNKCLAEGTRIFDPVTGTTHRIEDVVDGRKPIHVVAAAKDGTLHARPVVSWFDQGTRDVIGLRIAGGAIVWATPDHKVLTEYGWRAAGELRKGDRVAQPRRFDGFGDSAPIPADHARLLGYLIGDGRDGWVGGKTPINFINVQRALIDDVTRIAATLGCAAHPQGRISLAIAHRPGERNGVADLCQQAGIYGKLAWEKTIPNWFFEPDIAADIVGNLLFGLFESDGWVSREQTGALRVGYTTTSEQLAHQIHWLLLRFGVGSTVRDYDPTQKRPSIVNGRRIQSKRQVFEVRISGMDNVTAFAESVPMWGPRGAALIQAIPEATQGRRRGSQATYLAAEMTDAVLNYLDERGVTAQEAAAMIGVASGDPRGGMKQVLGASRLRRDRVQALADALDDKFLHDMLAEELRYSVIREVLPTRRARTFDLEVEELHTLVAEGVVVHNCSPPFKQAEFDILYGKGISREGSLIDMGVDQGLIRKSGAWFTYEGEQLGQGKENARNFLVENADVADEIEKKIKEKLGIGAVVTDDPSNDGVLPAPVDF

[1] = target: T2, Apoptotic protease-activating factor 1 (Homo sapiens, UniProt O14727)
T2 sequence (O14727 whole entry): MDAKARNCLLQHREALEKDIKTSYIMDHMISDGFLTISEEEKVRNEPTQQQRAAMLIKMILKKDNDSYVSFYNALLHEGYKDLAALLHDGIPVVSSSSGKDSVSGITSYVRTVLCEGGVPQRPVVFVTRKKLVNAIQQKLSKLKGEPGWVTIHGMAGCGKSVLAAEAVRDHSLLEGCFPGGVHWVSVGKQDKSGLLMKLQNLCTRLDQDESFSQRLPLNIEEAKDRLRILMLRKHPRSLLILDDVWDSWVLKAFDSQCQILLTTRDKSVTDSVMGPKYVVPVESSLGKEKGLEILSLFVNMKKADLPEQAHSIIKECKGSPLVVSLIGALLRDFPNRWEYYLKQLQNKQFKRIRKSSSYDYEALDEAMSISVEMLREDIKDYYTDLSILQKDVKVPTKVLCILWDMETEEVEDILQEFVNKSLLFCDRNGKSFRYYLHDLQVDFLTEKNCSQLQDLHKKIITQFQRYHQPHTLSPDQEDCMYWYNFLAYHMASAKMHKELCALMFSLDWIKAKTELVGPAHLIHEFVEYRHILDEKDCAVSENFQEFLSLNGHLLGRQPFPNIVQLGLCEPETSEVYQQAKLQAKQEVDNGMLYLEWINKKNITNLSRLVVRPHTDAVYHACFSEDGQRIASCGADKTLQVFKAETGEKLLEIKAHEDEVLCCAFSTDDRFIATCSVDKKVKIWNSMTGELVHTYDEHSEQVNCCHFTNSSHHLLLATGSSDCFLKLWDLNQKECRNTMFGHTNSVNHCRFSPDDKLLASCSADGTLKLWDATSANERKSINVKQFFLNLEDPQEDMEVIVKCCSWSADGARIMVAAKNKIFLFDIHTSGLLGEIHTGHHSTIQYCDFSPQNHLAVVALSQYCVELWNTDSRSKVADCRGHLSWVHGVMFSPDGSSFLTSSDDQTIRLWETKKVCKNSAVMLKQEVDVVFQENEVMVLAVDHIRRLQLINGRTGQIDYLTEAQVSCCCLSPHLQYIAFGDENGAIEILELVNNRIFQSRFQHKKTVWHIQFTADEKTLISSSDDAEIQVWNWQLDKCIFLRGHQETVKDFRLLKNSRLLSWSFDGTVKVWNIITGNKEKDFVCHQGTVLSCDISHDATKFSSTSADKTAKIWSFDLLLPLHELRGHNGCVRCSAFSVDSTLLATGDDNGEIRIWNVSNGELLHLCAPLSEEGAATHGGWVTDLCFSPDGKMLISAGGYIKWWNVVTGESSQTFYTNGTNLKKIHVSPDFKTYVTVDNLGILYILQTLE

[2] = target: T3, Replicative DNA helicase DnaB (Mycobacterium tuberculosis, UniProt P9WMR3); assay: DnaB intein splicing inhibitors, dose response, biochemical, cell-free fluorescence (AID 449749)
T3 sequence (P9WMR3 whole entry): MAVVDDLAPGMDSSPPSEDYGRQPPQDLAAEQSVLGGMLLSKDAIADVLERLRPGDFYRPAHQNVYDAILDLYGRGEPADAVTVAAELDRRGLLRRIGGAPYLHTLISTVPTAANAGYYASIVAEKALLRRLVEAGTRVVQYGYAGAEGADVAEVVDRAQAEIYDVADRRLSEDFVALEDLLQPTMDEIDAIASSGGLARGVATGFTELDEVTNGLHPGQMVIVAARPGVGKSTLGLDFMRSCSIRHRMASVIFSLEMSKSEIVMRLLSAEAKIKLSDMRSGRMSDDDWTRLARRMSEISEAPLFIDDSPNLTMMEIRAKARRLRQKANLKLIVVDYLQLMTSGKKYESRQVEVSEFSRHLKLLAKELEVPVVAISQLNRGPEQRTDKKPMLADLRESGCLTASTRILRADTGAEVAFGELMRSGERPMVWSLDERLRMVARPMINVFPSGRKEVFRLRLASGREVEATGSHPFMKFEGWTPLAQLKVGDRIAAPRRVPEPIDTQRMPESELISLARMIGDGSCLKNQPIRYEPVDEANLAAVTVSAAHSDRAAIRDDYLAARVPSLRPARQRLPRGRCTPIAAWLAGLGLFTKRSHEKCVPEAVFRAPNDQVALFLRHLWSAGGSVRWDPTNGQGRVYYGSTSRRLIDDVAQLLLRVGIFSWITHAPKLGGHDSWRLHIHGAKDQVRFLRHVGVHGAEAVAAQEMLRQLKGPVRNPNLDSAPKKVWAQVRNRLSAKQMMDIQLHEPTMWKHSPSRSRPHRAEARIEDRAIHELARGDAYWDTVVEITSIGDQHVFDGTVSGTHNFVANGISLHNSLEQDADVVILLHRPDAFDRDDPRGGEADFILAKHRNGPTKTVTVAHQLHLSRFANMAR

With Cc1ccc(C)c(S(=O)(=O)/N=C2\C=C(NS(=O)(=O)c3ccccc3)C(=O)c3ccccc32)c1 the EC50 (Protein RecA) was 2.25 µM (active), the IC50 [1] was 12 µM (active) and the AC50 [2] was 2.17 µM (active).

O=C(NC1(O)C(=O)c2ccccc2C1=O)c1ccccc1 was tested, and the EC50 (Protein RecA) was 16.4 µM (active), the IC50 [1] was 3.22 µM (active) and the AC50 [2] was 7.72 µM (active).

In the case of CCCCCCCCCCCCCCCCn1cc[n+](C)c1, the EC50 (Protein RecA) is reported as 9.84 µM (active) and 8.55 µM (active), the IC50 [1] is reported as 22.2 µM (active) and 21.1 µM (active) and the AC50 [2] is reported as 3.37 µM (active) and 3.76 µM (active).

For Cc1cc(C)nc(/N=c2/ssnc2Cl)c1, the IC50 [1] was 2.9 µM (active).

For O=C(Nc1ccccc1Cl)/C(Cl)=C(\Cl)[S+]([O-])c1ccccc1 (configuration not stated), the EC50 (Protein RecA) was 0.935 µM (active) and the AC50 [2] was 2.7 µM (active).
